According to patent EP0403301B1, “Aerosols of pyrido[1,2-a]pyrimidine compounds” (TOKYO TANABE COMPANY LIMITED, priority 1989, dated 1990):
≈ marks a conversion by molar mass, not a printed value.

Tests used:
Assay type in all cases: physicochemical
[1] = solubility in propellants and in propellant/solubilizing agent mixtures; conditions: Freon 11, 12, 13, 21, 22, 113, 114, 115, 123, 124, 132b, 133a, 134a, 141b, 142b, 152a, 225ca, 225cb, C318
Experimental: (§1) Inhalations for use as antiallergic agents include aqueous solution type aerosol inhalations, solution type aerosol inhalations and suspension type aerosol inhalations. The solubilities of pyrido[1,2-a]pyrimidine compounds in water are very low. For example, the solubility of 9-[(4-acetyl-3-hydroxy-2-n-propylphenoxy)methyl]-3-(1H-tetrazol-5-yl)-4H-pyrido[1,2-a]pyrimidin-4-one (hereinafter referred to as AS-35) in water is as low as 0.4 µg/ml. Accordingly, it would be impractical to prepare an aqueous solution type aerosol inhalation of AS-35, because this would require massive containers and devices. Moreover, in order to prepare a solution type aerosol inhalation of a pyrido[1,2-a]pyrimidine compound, it must be dissolved in a propellant or a mixture of a propellant and a commonly used solubilizing agent. […] Moreover, AS-35 is also insoluble in mixtures of such propellants and commonly used solubilizing agents. Thus, it is impossible to prepare a solution type aerosol inhalation of AS-35.

solubility in water = experiment: solubility in water
Experimental: as §1

[2] = dispersibility and cohesiveness of fine particles in propellant with dispersant (naked eye); conditions: AS-148 in place of AS-35
Experimental: First of all, a series of experiments were carried out to evaluate the effectiveness of conventional dispersants. More specifically, various ester forms of non-ionic surfactants which are non-irritating to the site of application were tested by using an aerosol composition consisting of finely powdered AS-35 and a propellant comprising a 4:6 mixture of Freon 11 and Freon 12. Thus, the solubility of the dispersants in the propellant, the dispersibility of fine particles, the cohesiveness of fine particles, and variation in the amount delivered were examined.
Among the aforesaid test items, the solubility of a dispersant in the propellant was evaluated by placing 90 mg of the dispersant in a transparent container made of polyethylene terephthalate (hereinafter referred to as PET), attaching a valve thereto, injecting the propellant (i.e., a 4:6 mixture of Freon 11 and Freon 12) thereinto until the contents amounted to 12.0 g, shaking the container vigorously, and then observing the contents with the naked eye. […]

Row | solubility in commonly used propellants [1] | solubility (solubility in water) [µg/mL] | results of Table 1 (dispersibility, cohesiveness with conventional dispersants) [2] | SMILES
1 | entirely insoluble | 0.4 (≈ 0.951 µM) |  | CCCc1c(OCc2cccn3c(=O)c(-c4nnn[nH]4)cnc23)ccc(C(C)=O)c1O [AS-35, 9-[(4-acetyl-3-hydroxy-2-n-propylphenoxy)methyl]-3-(1H-tetrazol-5-yl)-4H-pyrido[1,2-a]pyrimidin-4-one]
2 |  |  | exactly the same results as AS-35 | CCCc1c(OCc2cccn3c(=O)c(CC(=O)O)cnc23)ccc(C(C)=O)c1O [AS-148, [9-(4-acetyl-3-hydroxy-2-n-propylphenoxymethyl)-4-oxo-pyrido[1,2-a]pyrimidin-3-yl]-acetic acid]
